From patent US12358983B2, “Combination of anti CD19 antibody with a BCL-2 inhibitor and uses thereof” (Incyte Corporation, priority 2016, dated 2025)
Marks after values point to notes of the source that are not given here.

Experiments:
MEC-1 cells = test: Cytotoxicity (ADCC assay with NK effector cells) of MOR00208 and venetoclax alone and in combination in MEC-1 cells; format: cell-based
From the text: Cell lines tested: MEC-1 cells (DSMZ# ACC497). Culture conditions of cell lines used are according to supplier's information. Cell Medium: lscove's Modified Dulbecco's Medium (IMDM), Invitrogen, Cat No.: 31980; RPMI1640, Invitrogen, Cat No.: 31870; GlutaMAX, Invitrogen, CAT No.: 35050; FCS: Sigma CAT No.: F7524 LOT No.: 111M3396. NKs: RPMI1640, with GlutaMAX, Invitrogen, Cat No.: 31870, 10% FCS; Biocoll: Biochrome AG CAT No.: L6115 LOT No.: 0034D; MACS NK cell isolation kit: Miltenyi Biotec CAT No.: 130-092-657 LOT No.: 5150402327; venetoclax: Selleck Chem. CAT No.: S8048 LOT No.: S804803; FCS: Sigma CAT No.: F7524 LOT No.: 111M3396; and RefmAb33 (anti-RSV) with same Fc region as MOR00208.
The cytotoxic potential of MOR00208 and venetoclax alone and in combination were tested in the MEC-1 cell line (CLL). Target cell killing is measured using the following parameters: venetoclax mono treatment at concentrations of 3 μM, 6.5 μM, and 10 μM; MOR00208 mono treatment at concentrations of 0.01 pM, 0.1 pM, 1 pM, 10 pM, 100 pM and 10 nM, and the combination treatment of the listed venetoclax and MOR00208 concentrations. The following are used as controls: RefnnAb33, NK cells alone, MEC-1 cells alone or DMSO. In the venetoclax mono groups as well as in the MOR00208+venetoclax combination groups, target cells were pretreated with venetoclax or with DMSO control for 24 hours followed by removal of the dead cells prior to the ADCC assay. A dead cell removal kit was used to remove cells killed by the cytotoxic effect of venetoclax. The dead cell removal kit was implemented to mimick the removal of dead cells that also occurs in vivo and to prevent false negative interference of the dead cells with the subsequent ADCC assay. For the ADCC assay, target cells are counted and stained using CFSE at a final concentration of 1 μg/mL. For the control group, i.e. DMSO treated target cells, the effector: target (E:T) cell ratio was adjusted to 2:1, i.e. 1×10E6/nnL effector cells (NK cells) and 5×10E5/mL target cells (MEC-1 cells). […] The ADCC assays were performed as follows: using 96 well plates, 100 μL of MEC-1 target cell suspension was added per well, followed by 100 μL NK effector cell suspension per well. Mixed cell suspensions were centrifuged and resuspended in 100 μL antibody containing medium or the according control solution. The antibodies were diluted in a range of 10 nM-0.01 pM (corresponds to 1.5 μg/mL-1.5 pg/mL) in medium. The ADCC assays were incubated for 2 hours in a CO2-incubator at 37° C. After 10 minutes incubation on ice, 50 μL DAPI solution was added to each well (final concentration 1 μg/mL) and incubated for additional 10 minutes on ice. The ADCC measurements were performed on a BD FACSVerse instrument. Dead target cells were identified as DAPI positive cells.
Combination Index (CI) calculations are completed in order to determine synergy of the combination of the exemplified anti-CD19 antibody and venetoclax as compared to MOR00208 and venetoclax alone. Such calculations are described in Ting-Chao Chou, Theoretical Basis, Experimental Design, and Computerized Simulation of Synergism and Antagonism in Drug Combination Studies, Pharmacol Rev 58:621-681 (2006), which is incorporated by reference in its entirety and Chou TC, Talalay P, Quantitative analysis of dose-effect relationships: the combined effects of multiple drugs or enzyme inhibitors. Adv Enzyme Regul 22: 27-55 (1984), which is incorporated by reference in its entirety. The methods of Chou-Talalay are carried out using the CI-isobol method.
The median-effect equation models the effect of an inhibitor (such as a drug) as Fa/Fu=(D/D50)^m, where D is the dose, Fa and Fu is the fraction of the system affected and unaffected by the dose D (Fa+Fu=1); D50 is the dose producing the median effect (e.g. IC50, ED50, LD50). The constant m determines the shape of the dose-effect curve.

[1] = tested on: TOLEDO human lymphoma cell tumors; test: Subcutaneous human lymphoma cell xenograft model in SCID mice; settings: for Median Survival (Days Post-Randomization): humane endpoint tumor volume 2000 mm3; for Median % Increase in Doubling Time (IDT) / Median % Increase in Lifespan (ILS): vs. PEP/PBS Control
Experimental: Toledo cell line and culture medium were purchased and provided by Oncodesign. […] The cells are adherent to plastic flasks.
A statistical test (analysis of variance, ANOVA) was performed to test for homogeneity between groups. MOR208 was injected intraperitoneally (IP) into the peritoneal cavity of mice. Combined substance was administered by oral gavage (per os, PO) via a gavage tube.
The treatment schedule initiated at D23 was as follows:
Animals from group 1 received one daily PO administration of PEP and one IP injection twice a week of PBS.
Animals from group 4 received one IP injection of MOR208 at 11 mg/kg/inj on D23, D27, D30, D34, D37 and D41 followed by a single IP injection of MOR208 at 11 mg/kg/inj on D48 (twice a week).
The viability and behavior were recorded every day. Body weights and tumor volume were measured twice a week. The length and width of the tumor were measured twice a week with calipers and the volume of the tumor was estimated by the formula:

## CC1(C)CCC(CN2CCN(c3ccc(C(=O)NS(=O)(=O)c4ccc(NCC5CCOCC5)c([N+](=O)[O-])c4)c(Oc4cnc5[nH]ccc5c4)c3)CC2)=C(c2ccc(Cl)cc2)C1 [Venetoclax, 4-(4-{[2-(4-Chlorophenyl)-4,4-dimethyl-1-cyclohexen-1-yl]methyl}-1-piperazinyl)-N-({3-nitro-4-[(tetrahydro-2H-pyran-4-ylmethyl)amino]phenyl}sulfonyl)-2-(1H-pyrrolo[2,3-b]pyridin-5-yloxy)benzamide, reference compound]
MEC-1 cells; Exp 1, same effect as MOR00208 1.50E+00 μg/mL + venetoclax 3.0 μM
  Theoretical Venetoclax Dose: 16.0 µM
MEC-1 cells; Exp 1, same effect as MOR00208 1.50E+00 μg/mL + venetoclax 6.5 μM
  Theoretical Venetoclax Dose: 23.9 µM
MEC-1 cells; Exp 1, same effect as MOR00208 1.50E+00 μg/mL + venetoclax 10.0 μM
  Theoretical Venetoclax Dose: 28.4 µM
MEC-1 cells; Exp 1, same effect as MOR00208 1.50E−02 μg/mL + venetoclax 3.0 μM
  Theoretical Venetoclax Dose: 15.1 µM
MEC-1 cells; Exp 1, same effect as MOR00208 1.50E−02 μg/mL + venetoclax 6.5 μM
  Theoretical Venetoclax Dose: 21.9 µM
MEC-1 cells; Exp 1, same effect as MOR00208 1.50E−02 μg/mL + venetoclax 10.0 μM
  Theoretical Venetoclax Dose: 23.0 µM
MEC-1 cells; Exp 1, same effect as MOR00208 1.50E−03 μg/mL + venetoclax 3.0 μM
  Theoretical Venetoclax Dose: 10.4 µM
MEC-1 cells; Exp 1, same effect as MOR00208 1.50E−03 μg/mL + venetoclax 6.5 μM
  Theoretical Venetoclax Dose: 12.7 µM
MEC-1 cells; Exp 1, same effect as MOR00208 1.50E−03 μg/mL + venetoclax 10.0 μM
  Theoretical Venetoclax Dose: 14.0 µM
MEC-1 cells; Exp 1, same effect as MOR00208 1.50E−04 μg/mL + venetoclax 3.0 μM
  Theoretical Venetoclax Dose: 7.2 µM
MEC-1 cells; Exp 1, same effect as MOR00208 1.50E−04 μg/mL + venetoclax 6.5 μM
  Theoretical Venetoclax Dose: 8.5 µM
MEC-1 cells; Exp 1, same effect as MOR00208 1.50E−04 μg/mL + venetoclax 10.0 μM
  Theoretical Venetoclax Dose: 8.9 µM
MEC-1 cells; Exp 1, same effect as MOR00208 1.50E−05 μg/mL + venetoclax 3.0 μM
  Theoretical Venetoclax Dose: 6.3 µM
MEC-1 cells; Exp 1, same effect as MOR00208 1.50E−05 μg/mL + venetoclax 6.5 μM
  Theoretical Venetoclax Dose: 6.9 µM
MEC-1 cells; Exp 1, same effect as MOR00208 1.50E−05 μg/mL + venetoclax 10.0 μM
  Theoretical Venetoclax Dose: 7.4 µM
MEC-1 cells; Exp 1, same effect as MOR00208 1.50E−06 μg/mL + venetoclax 10.0 μM
  Theoretical Venetoclax Dose: 6.4 µM
MEC-1 cells; Exp 1, venetoclax 3.0 μM
  Actual Venetoclax Effect: 8.9 % dead cells
MEC-1 cells; Exp 1, venetoclax 6.5 μM
  Actual Venetoclax Effect: 17.7 % dead cells
MEC-1 cells; Exp 1, venetoclax 10.0 μM
  Actual Venetoclax Effect: 38.8 % dead cells
MEC-1 cells; Exp 2, same effect as MOR00208 1.50E+00 μg/mL + venetoclax 3.0 μM
  Theoretical Venetoclax Dose: 11.2 µM
MEC-1 cells; Exp 2, same effect as MOR00208 1.50E+00 μg/mL + venetoclax 6.5 μM
  Theoretical Venetoclax Dose: 12.5 µM
MEC-1 cells; Exp 2, same effect as MOR00208 1.50E+00 μg/mL + venetoclax 10.0 μM
  Theoretical Venetoclax Dose: 17.6 µM
MEC-1 cells; Exp 2, same effect as MOR00208 1.50E−02 μg/mL + venetoclax 3.0 μM
  Theoretical Venetoclax Dose: 10.6 µM
MEC-1 cells; Exp 2, same effect as MOR00208 1.50E−02 μg/mL + venetoclax 6.5 μM
  Theoretical Venetoclax Dose: 11.9 µM
MEC-1 cells; Exp 2, same effect as MOR00208 1.50E−02 μg/mL + venetoclax 10.0 μM
  Theoretical Venetoclax Dose: 15.0 µM
MEC-1 cells; Exp 2, same effect as MOR00208 1.50E−03 μg/mL + venetoclax 3.0 μM
  Theoretical Venetoclax Dose: 8.6 µM
MEC-1 cells; Exp 2, same effect as MOR00208 1.50E−03 μg/mL + venetoclax 6.5 μM
  Theoretical Venetoclax Dose: 9.4 µM
MEC-1 cells; Exp 2, same effect as MOR00208 1.50E−03 μg/mL + venetoclax 10.0 μM
  Theoretical Venetoclax Dose: 11.3 µM
MEC-1 cells; Exp 2, same effect as MOR00208 1.50E−04 μg/mL + venetoclax 3.0 μM
  Theoretical Venetoclax Dose: 7.3 µM
MEC-1 cells; Exp 2, same effect as MOR00208 1.50E−04 μg/mL + venetoclax 6.5 μM
  Theoretical Venetoclax Dose: 7.9 µM
MEC-1 cells; Exp 2, same effect as MOR00208 1.50E−04 μg/mL + venetoclax 10.0 μM
  Theoretical Venetoclax Dose: 8.8 µM
MEC-1 cells; Exp 2, same effect as MOR00208 1.50E−05 μg/mL + venetoclax 3.0 μM
  Theoretical Venetoclax Dose: 6.6 µM
MEC-1 cells; Exp 2, same effect as MOR00208 1.50E−05 μg/mL + venetoclax 6.5 μM
  Theoretical Venetoclax Dose: 7.1 µM
MEC-1 cells; Exp 2, same effect as MOR00208 1.50E−05 μg/mL + venetoclax 10.0 μM
  Theoretical Venetoclax Dose: 8.0 µM
MEC-1 cells; Exp 2, same effect as MOR00208 1.50E−06 μg/mL + venetoclax 6.5 μM
  Theoretical Venetoclax Dose: 6.7 µM
MEC-1 cells; Exp 2, same effect as MOR00208 1.50E−06 μg/mL + venetoclax 10.0 μM
  Theoretical Venetoclax Dose: 7.2 µM
MEC-1 cells; Exp 2, venetoclax 3.0 μM
  Actual Venetoclax Effect: 19.9 % dead cells
MEC-1 cells; Exp 2, venetoclax 6.5 μM
  Actual Venetoclax Effect: 32.4 % dead cells
MEC-1 cells; Exp 2, venetoclax 10.0 μM
  Actual Venetoclax Effect: 73.9 % dead cells
MEC-1 cells; Exp 3, same effect as MOR00208 1.50E+00 μg/mL + venetoclax 3.0 μM
  Theoretical Venetoclax Dose: 16.6 µM
MEC-1 cells; Exp 3, same effect as MOR00208 1.50E+00 μg/mL + venetoclax 6.5 μM
  Theoretical Venetoclax Dose: 29.4 µM
MEC-1 cells; Exp 3, same effect as MOR00208 1.50E+00 μg/mL + venetoclax 10.0 μM
  Theoretical Venetoclax Dose: 31.0 µM
MEC-1 cells; Exp 3, same effect as MOR00208 1.50E−02 μg/mL + venetoclax 3.0 μM
  Theoretical Venetoclax Dose: 15.4 µM
MEC-1 cells; Exp 3, same effect as MOR00208 1.50E−02 μg/mL + venetoclax 6.5 μM
  Theoretical Venetoclax Dose: 22.3 µM
MEC-1 cells; Exp 3, same effect as MOR00208 1.50E−02 μg/mL + venetoclax 10.0 μM
  Theoretical Venetoclax Dose: 31.0 µM
MEC-1 cells; Exp 3, same effect as MOR00208 1.50E−03 μg/mL + venetoclax 3.0 μM
  Theoretical Venetoclax Dose: 10.2 µM
MEC-1 cells; Exp 3, same effect as MOR00208 1.50E−03 μg/mL + venetoclax 6.5 μM
  Theoretical Venetoclax Dose: 12.2 µM
MEC-1 cells; Exp 3, same effect as MOR00208 1.50E−03 μg/mL + venetoclax 10.0 μM
  Theoretical Venetoclax Dose: 18.4 µM
MEC-1 cells; Exp 3, same effect as MOR00208 1.50E−04 μg/mL + venetoclax 3.0 μM
  Theoretical Venetoclax Dose: 7.9 µM
MEC-1 cells; Exp 3, same effect as MOR00208 1.50E−04 μg/mL + venetoclax 6.5 μM
  Theoretical Venetoclax Dose: 9.0 µM
MEC-1 cells; Exp 3, same effect as MOR00208 1.50E−04 μg/mL + venetoclax 10.0 μM
  Theoretical Venetoclax Dose: 11.6 µM
MEC-1 cells; Exp 3, same effect as MOR00208 1.50E−05 μg/mL + venetoclax 3.0 μM
  Theoretical Venetoclax Dose: 6.4 µM
MEC-1 cells; Exp 3, same effect as MOR00208 1.50E−05 μg/mL + venetoclax 6.5 μM
  Theoretical Venetoclax Dose: 7.5 µM
MEC-1 cells; Exp 3, same effect as MOR00208 1.50E−05 μg/mL + venetoclax 10.0 μM
  Theoretical Venetoclax Dose: 9.6 µM
MEC-1 cells; Exp 3, same effect as MOR00208 1.50E−06 μg/mL + venetoclax 6.5 μM
  Theoretical Venetoclax Dose: 6.4 µM
MEC-1 cells; Exp 3, same effect as MOR00208 1.50E−06 μg/mL + venetoclax 10.0 μM
  Theoretical Venetoclax Dose: 8.4 µM
MEC-1 cells; Exp 3, venetoclax 3.0 μM
  Actual Venetoclax Effect: 7.7 % dead cells
MEC-1 cells; Exp 3, venetoclax 6.5 μM
  Actual Venetoclax Effect: 16.3 % dead cells
MEC-1 cells; Exp 3, venetoclax 10.0 μM
  Actual Venetoclax Effect: 48.1 % dead cells
[1]; ABT-199 20 mg/kg p.o. daily
  Median Tumor Doubling Time: 9.6^a Days
  Median Survival (Days Post-Randomization): 30.0^a Days
  Median % Increase in Doubling Time (IDT): 44%
  Median % Increase in Lifespan (ILS): 43%
[1]; ABT-199 40 mg/kg p.o. daily
  Median Tumor Doubling Time: 11.1^a Days
  Median Survival (Days Post-Randomization): 36.2^a Days
  Median % Increase in Doubling Time (IDT): 64%
  Median % Increase in Lifespan (ILS): 72%
